This note sets out measurements from paper PMC10703884, “Targeting the COMMD4–H2B protein complex in lung cancer” (British Journal of Cancer, 2023).

In the experiment the test system is GST-COMMD4. The experiment in a line: FLAG immunoprecipitation, FLAG-H2B constructs with COMMD4. The note with it: FLAG-H2B immunoprecipitated from HEK293T cells, anti-FLAG M2 Dynabeads, 4 °C, immunoblot for GST-COMMD4 and FLAG. The format is binding. The method, then: For siRNA transfections, cells were transfected with negative control or COMMD4 siRNA #2 (CCAUGUCCCUCUCAGCAGA[dT][dT] MISSION® siRNA, Sigma-Aldrich) using RNAiMax (Life Technologies) as previously described and samples were analysed 48 to 72 h post-transfection. The H2B wild-type (FLAG-H2BWT) and mutant (FLAG-H2BMUT1) expression constructs were generated with the 10-amino acid peptide and the corresponding mutant cloned into the expression vector pCDNA3.1/(+)-N-DYK containing an N-terminal FLAG tag and a C-terminal nuclear localisation signal (AAKRVKLDS) (GenScript). A70K FLAG-COMMD4 expression construct was generated by mutating the corresponding COMMD4-FLAG construct to harbour an A70K mutation (GenScript). Cells were mock-transfected, or transfected with FLAG-H2BWT/FLAG-H2BMUT1, or COMMD4-FLAG/A70K with FuGENE® HD (Promega) using the manufacturer’s protocol and analysed 24 h post-transfection.
Co-immunoprecipitations were performed as previously summarised, using ice-cold NP40 buffer. Assays for co-immunoprecipitations were performed at 4 °C from HEK293T, transiently expressing the FLAG-H2B WT or MUT plasmid. Proteins were captured using anti-FLAG M2 Dynabeads (ThermoFisher) and washed three times in NP40 buffer prior to analysis. […]

No end group written: not given here.

For “FLAG-H2BWT: 10-amino acid peptide cloned into expression vector containing an N-terminal FLAG tag and a C-terminal nuclear localisation signal ({FLAG}-SFVNDIFERIAAKRVKLDS)”, the “binding of overexpressed FLAG-H2B construct to COMMD4” value was “interacted with COMMD4”.
